The target of the assay is T1, Lanosterol synthase (Rattus norvegicus, UniProt P48450).
T1 sequence (P48450 whole entry): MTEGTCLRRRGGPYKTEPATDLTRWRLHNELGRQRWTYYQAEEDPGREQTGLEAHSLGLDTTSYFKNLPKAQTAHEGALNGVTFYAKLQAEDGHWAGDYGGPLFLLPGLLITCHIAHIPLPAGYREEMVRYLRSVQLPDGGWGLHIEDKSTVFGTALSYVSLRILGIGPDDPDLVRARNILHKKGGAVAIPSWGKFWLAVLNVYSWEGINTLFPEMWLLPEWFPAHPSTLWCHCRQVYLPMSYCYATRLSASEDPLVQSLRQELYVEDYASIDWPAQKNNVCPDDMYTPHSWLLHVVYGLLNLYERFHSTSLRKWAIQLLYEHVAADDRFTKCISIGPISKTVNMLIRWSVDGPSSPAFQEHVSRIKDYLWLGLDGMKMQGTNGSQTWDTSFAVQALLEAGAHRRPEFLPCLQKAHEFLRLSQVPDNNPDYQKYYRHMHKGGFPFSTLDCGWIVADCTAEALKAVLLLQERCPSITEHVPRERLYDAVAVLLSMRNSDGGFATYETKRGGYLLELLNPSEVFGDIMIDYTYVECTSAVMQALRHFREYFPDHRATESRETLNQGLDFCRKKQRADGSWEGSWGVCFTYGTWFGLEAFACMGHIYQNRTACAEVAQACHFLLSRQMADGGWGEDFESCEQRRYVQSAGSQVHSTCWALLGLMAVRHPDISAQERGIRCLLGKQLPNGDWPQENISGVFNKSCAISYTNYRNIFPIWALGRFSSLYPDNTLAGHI
The experiment in a line: Compound was evaluated for inhibitory activity against 2,3-oxidosqualene-lanosterol cyclase in rat liver microsomes. Details: species or system Microsome. A general note: Liver microsomes are vesicles of endoplasmic reticulum, rich in cytochrome P450 enzymes.
In general, IC50 refers to the concentration needed to halve the response being measured. Read a low IC50 as greater potency. In turn, `CC(C)=CCCC1(C)OC1CC/C(C)=C/CC/C=C(\C)CC/C=C(\C)CCC1OC1(C)C` (stereo not drawn) had a half-maximal inhibitory concentration (IC50) of 0.11 µM.

In turn, `C/C(=C\CC/C=C(\C)CC/C=C(\C)CCC1OC1(C)C)CC/C=C(\C)CCC1OC1(C)C` (stereo not drawn) yielded an IC50 of 142 µM.

Turning to `CC(C)=CCC/C(C)=C/CC/C(C)=C/CC/C=C(\C)CCC1OC1(C)CCC=C(C)C` (stereo not drawn), the concentration for half-maximal inhibition (IC50) came to 83.5 µM.

(Values after ChEMBL document CHEMBL1126228, “2,3:18,19-dioxidosqualene: synthesis and activity as a potent inhibitor of 2,3-oxidosqualene-lanosterol cyclase in rat liver microsomes” (Bioorg Med Chem Lett, 1992).)
